Entries after “also recorded” stand apart in the source; their conditions may differ. Like-named read-outs stand apart in the source and are kept apart here.
Experiments:
Format in all cases: cell-based, human
[1] = test system: HLA-A*24:02-expressing target cells (TISI cells)
[2] = test system: HLA-A*02:01-expressing target cells (T2 cells)
[3] = test system: CD8-positive T cells in PBMCs of individuals not infected with SARS-CoV-2 (HLA-A*24:02-positive)
[4] = test system: HLA-A*02:01-expressing target cells (T2 cells); remark: listed apart in the source
TISI cells = test system: TISI cells
[5] = test system: HLA-A*24:02-expressing target cells (TISI cells); remark: listed apart in the source
[6] = test system: CD8-positive T cells in PBMCs of individuals who had recovered from COVID-19 (HLA-A*24:02-positive)
[7] = HLA-A*24:02-restricted CTL lines, peptide-pulsed TISI cells
[8] = HLA-A*02:01-restricted, peptide-pulsed T2 cells vs T2 cells not pulsed
[9] = HLA-A*02:01-restricted CTL lines, peptide-pulsed T2 cells
[10] = CTL clones from limiting dilution, TISI target cells
[11] = HLA-A*24:02-restricted, peptide-pulsed TISI cells vs TISI cells not pulsed

Sequence | IFN-γ production by CTL lines (ELISA) [1, 7] | Peptide-specific IFN-γ production (ELISPOT) [2, 8] | Peptide-specific IFN-γ production by CTL clones (ELISA) (TISI cells; [10]) | Peptide-specific IFN-γ production (ELISPOT) [5, 11] | Detection of tetramer-positive CD8-positive T cells recognizing the peptide [6] | further results
AYANSVFNI [Peptide 1] | produced IFN-γ in a peptide-specific manner | peptide-specific IFN-γ production was observed | showed IFN-γ production specific to | peptide-specific IFN-γ production was observed | – | Detection of tetramer-positive CD8-positive T cells recognizing the peptide [3]: detected; IFN-γ production by CTL lines (ELISA) [4, 9]: produced IFN-γ in a peptide-specific manner
FTYASALWEI (an amino acid sequence derived from ORF1ab polyprotein of SARS-CoV-2) [Peptide 10, SARS-CoV-2 ORF1ab-derived 10mer peptide, position 4089] | produced IFN-γ in a peptide-specific manner | – | showed IFN-γ production specific to | peptide-specific IFN-γ production was observed | detected | –
LWLLWPVTL [Peptide 13] | – | – | – | – | detected | IFN-γ production by CTL lines (ELISA) [1]: produced IFN-γ in a peptide-specific manner; Peptide-specific IFN-γ production (ELISPOT) [2]: peptide-specific IFN-γ production was observed; Detection of tetramer-positive CD8-positive T cells recognizing the peptide [3]: detected; IFN-γ production by CTL lines (ELISA) [4]: produced IFN-γ in a peptide-specific manner; Peptide-specific IFN-γ production (ELISPOT) [5]: peptide-specific IFN-γ production was observed
PFAMQMAYRF (an amino acid sequence derived from surface glycoprotein of SARS-CoV-2) [Peptide 5, SARS-CoV-2 S protein-derived 10mer peptide, position 897] | produced IFN-γ in a peptide-specific manner | no peptide-specific IFN-γ production was observed | – | peptide-specific IFN-γ production was observed | detected | –
RYFKYWDQTY [Peptide 12] | – | peptide-specific IFN-γ production was observed | – | peptide-specific IFN-γ production was observed | – | –
RYKLEGYAF [Peptide 9] | – | – | – | – | detected | IFN-γ production by CTL lines (ELISA) [1]: produced IFN-γ in a peptide-specific manner; Peptide-specific IFN-γ production (ELISPOT) [2]: no peptide-specific IFN-γ production was observed; Peptide-specific IFN-γ production by CTL clones (ELISA) (TISI cells): showed IFN-γ production specific to; Peptide-specific IFN-γ production (ELISPOT) [5]: peptide-specific IFN-γ production was observed
SYSLFDMSKF [Peptide 11] | – | no peptide-specific IFN-γ production was observed | – | peptide-specific IFN-γ production was observed | – | –
TAYANSVFNI (an amino acid sequence derived from ORF1ab polyprotein of SARS-CoV-2) [Peptide 2, SARS-CoV-2 ORF1ab-derived 10mer peptide, position 5079] | produced IFN-γ in a peptide-specific manner | peptide-specific IFN-γ production was observed | showed IFN-γ production specific to | peptide-specific IFN-γ production was observed | – | IFN-γ production by CTL lines (ELISA) [4, 9]: produced IFN-γ in a peptide-specific manner
TYASALWEI [Peptide 4] | – | – | – | – | detected | IFN-γ production by CTL lines (ELISA) [1]: produced IFN-γ in a peptide-specific manner; Peptide-specific IFN-γ production (ELISPOT) [2]: peptide-specific IFN-γ production was observed; Peptide-specific IFN-γ production (ELISPOT) [5]: peptide-specific IFN-γ production was observed
VFMSEAKCW (an amino acid sequence derived from ORF1ab polyprotein of SARS-CoV-2) [Peptide 3, SARS-CoV-2 ORF1ab-derived 9mer peptide, position 5184] | – | no peptide-specific IFN-γ production was observed | – | peptide-specific IFN-γ production was observed | – | –
YAYLRKHFSM (an amino acid sequence derived from ORF1ab polyprotein of SARS-CoV-2) [Peptide 15, SARS-CoV-2 ORF1ab-derived 10mer peptide, position 5138] | – | no peptide-specific IFN-γ production was observed | – | peptide-specific IFN-γ production was observed | – | –
YDYLVSTQEF (an amino acid sequence derived from ORF1ab polyprotein of SARS-CoV-2) [Peptide 6, SARS-CoV-2 ORF1ab-derived 10mer peptide, position 3811] | – | – | – | peptide-specific IFN-γ production was not found; also recorded: no peptide-specific IFN-γ production was observed | – | –
YYSQLMCQPI (an amino acid sequence derived from ORF1ab polyprotein of SARS-CoV-2) [Peptide 7, SARS-CoV-2 ORF1ab-derived 10mer peptide, position 2560] | produced IFN-γ in a peptide-specific manner | peptide-specific IFN-γ production was observed | showed IFN-γ production specific to | peptide-specific IFN-γ production was observed | – | Detection of tetramer-positive CD8-positive T cells recognizing the peptide [3]: detected
